Source: patent US20040086942A1, “Ige receptor antagonists” (priority 2003, published 2004)
“And” between values parts separate entries of the source, which are not always exact repeats. Equal entries are not always repeated. Where two headings read alike, the source gives them in different places. Where a SMILES comes first, the peptide text is derived from it. Bridges are numbered along the chain shown (N, C = ends). Roman numbers before positions name the chains, in order.

Legend:
[1] = target: T1, FcεRIα (Homo sapiens, UniProt P12319); experiment: surface plasmon resonance biosensor direct-binding assay; conditions: midpoint of 4-parameter fit to peptide saturation curve, immobilized receptor; read-out: Binding affinity: EC50 (uM) ± s.d.
T1 construct: human FcεRI(aa 1-176) was expressed using a baculovirus secretion expression system; host or cells: Hi-5 insect cells infected with baculovirus (virus produced in Sf9; transfer vector pAcGP67)
T1 sequence (P12319 26-201): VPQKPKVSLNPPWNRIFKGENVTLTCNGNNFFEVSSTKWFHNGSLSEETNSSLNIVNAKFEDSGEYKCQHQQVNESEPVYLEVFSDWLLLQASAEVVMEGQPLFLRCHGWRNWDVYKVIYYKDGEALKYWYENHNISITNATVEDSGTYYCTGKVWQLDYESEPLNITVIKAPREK
Procedure: Several peptides were also tested in a direct-binding assay using a surface plasmon resonance biosensor (Lofas & Johnsson, J. Chem. Soc. Commun. 21, 1526-1528 (1990)). FcεRIα, produced in baculovirus infected insect cells, was immobilized by the surface thiol method (BIAcore Methods Manual Supplement 5a, BIAcore, Inc., Piscataway, N.J.). Briefly, receptor was reacted with 2-(2pyridinyldithio)ethaneamine hydrochloride (PDEA; Natake & Swaisgood, J. Biochem. 74, 77-86 (1973)), desalted into 10 mM sodium acetate (pH 4.8) and stored in aliquots at −80″C. Thawed PDEA-receptor was injected over carboxymethyl-dextran (B1 or CM5, BIAcore, Inc.) biosensor chips preactivated with N-ethyl-N′-(3-dimethylaminopropyl)-carbodiimide hydrochloride (EDC) and N-hydroxysuccinimide (NHS), cystamine, and DTT. Following coupling, reactive groups on the chip were quenched with […] and ethanolarine. Serial dilutions of peptide in running buffer (phosphate-buffered saline containing 0.05% Tween-20, 0.01% sodium azide) were injected over the immobilized receptor, and the net amount of peptide bound at steady-state was measured as the net change in response (RU) at a point just prior to termination of peptide injection, compared to a running-buffer baseline. Binding affinities (Table 10) are reported as the midpoint (EC50) of a 4-parameter fit to the peptide saturation curve.

[2] = target: T2, alpha subunit of the human FcεRI receptor (Homo sapiens, UniProt P12319); experiment: cell-based 125I-IgE binding inhibition assay on CHO FcεRI+ cells; conditions: for IC50: IgE-inhibition activity of synthetic peptides, read-out: Inhibition activity: C+hd 50 +l (uM) ± s.d.
T2 construct: expressed in transfected cells; host or cells: Chinese hamster ovary (CHO FcεRI+) cells
T2 sequence (P12319 26-257): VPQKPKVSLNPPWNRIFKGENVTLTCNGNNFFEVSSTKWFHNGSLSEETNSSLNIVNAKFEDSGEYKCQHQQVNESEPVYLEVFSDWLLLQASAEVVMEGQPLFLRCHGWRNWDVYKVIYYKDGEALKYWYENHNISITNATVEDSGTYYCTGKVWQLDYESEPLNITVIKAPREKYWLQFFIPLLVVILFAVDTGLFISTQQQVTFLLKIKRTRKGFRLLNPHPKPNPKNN
Procedure, shortened: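 Peptides, serially diluted 1:3 from 50-500 uM, preincubated 1 h at room temperature on CHO cells expressing human FcεRI alpha, then 1.5 nM 125I-IgE added for 45-60 min at 4 °C. Buffer F12/DMEM, 1% BSA, 0.05% NaN3, pH 7.2. Bound counts by gamma counting; IC50 from 4-parameter fits.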

[3] = 2D NMR structural score versus reference peptide; type: physicochemical; design: key to Structure Score: +++, peptide structurally similar to reference; +, structurally similar to reference but significantly less stable; +/−, peptide has some elements of stable structure, but the conformation differs from the reference structure; −, peptide is predominantly unstructured; *peptide IGE037 (SEQ ID NO:128) was initially unstructured (monomeric form), but became structured after spontaneous dimer formation; conditions: reference IGE134
Procedure, shortened: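 Backbone ¹H resonances assigned by 2D NMR and ³JHN-Hα coupling constants measured against a reference peptide. Structure scored similar when chemical shifts, coupling constants and NOEs are consistent with the reference structure.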

[4] = target: T3, FcεRI-IgG (Homo sapiens, UniProt P12319); experiment: g3 phage competitive binding ELISA (competition with soluble FcεRI-IgG); conditions: for Relative (IC50) (fold weaker): relative to g3c.42, NDB = no detectable binding
T3 construct: consisting of the extracellular domain of FcεR Ifused to the Fc domain of IgG; host or cells: CHO cells
T3 sequence (P12319 26-205 limits assumed): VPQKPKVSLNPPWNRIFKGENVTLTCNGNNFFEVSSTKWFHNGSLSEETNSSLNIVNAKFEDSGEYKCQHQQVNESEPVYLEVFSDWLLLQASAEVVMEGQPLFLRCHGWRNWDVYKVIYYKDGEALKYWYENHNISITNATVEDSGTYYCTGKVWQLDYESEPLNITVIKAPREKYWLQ
Procedure: A phage based competitive binding ELISA for immobilized FcεRI-IgG in the presence of titrated amounts of soluble FcεRI-IgG was performed on each of the clones.
Peptide sequences from g8p-fused phage clones that specifically bound FcεRI-IgG were transferred onto a g3p-display format for monovalent phage display (Bass et al., Proteins 8, 309-314 (1990); Lowman et al., Biochemistry 30, 10832-10838 (1991)). An oligonucleotide encoding for each desired peptide with additional 5′ and 3′ base pair that overlapped with g3 was synthesized. This oligonucleotide was annealed with a g3 single stranded DNA phagemid template. The mutagenesis reaction was transformed into XL-1 Blue E. coli and plated on LB-carb+ agar plates. Individual colonies were propagated in 5 mL of 2YT broth, tetracycline, carbenicillin and VCSM13 helper phage (Stratagene). Single stranded DNA was isolated from the purified phage particles and sequenced to confirm the insertion of the phage peptide sequence. 25 mL preparations of g3 phage clones were propagated overnight and purified by PEG precipitation. After resuspension of the phage pellet in 1.0 mL of PBS, it was serially diluted ⅓ and incubated with immobilized FcεRI-IgG 2 ug/mL in a 96 well Maxisorp microtiter plate for 1 hour at room temperature. The wells were washed 10× with PBST then incubated with 100 uL of anti M13 phage HRP as described above. An OD(492) value corresponding to less than 50% binding was selected and the purified phage clones were diluted to yield this normalized level of signal. […] The mixture was then transferred to 96 well microtiter dishes containing immobilized FcεRI-IgG. After a 1-hour incubation period, the plates were washed 10 times, incubated with anti M13-HRP conjugated antibody and developed with OPD as described above. The data was plotted, and 4-parameter fits (KaleidaGraph 3.0) used for calculation of IC50 values.
Alanine substitutions were made at various positions throughout the peptide sequence for monovalent (g3p) phage display using site directed mutagenesis as described (Kunkel et al., Methods Enzymol. 204, 125-139 (1991)). In addition, stepwise N-terminal and C-terminal truncations of the peptide sequence were constructed. All constructs were made by designing oligonucleotides corresponding to the desired substitution or truncation, with an additional 18 bp of DNA overlapping the peptide or g3 phage DNA sequence. The phage clones were propagated overnight following infection in XL-1 Blue E. coli. Purified phage preparations were titered and assayed for binding to immobilized receptor. FcεRI-IgG competition assays were performed as described above.

[5] = target: T4, FcεRI (Homo sapiens, UniProt P12319); experiment: competitive phage ELISA on baculovirus-derived FcεRI; type: binding; conditions: for relative binding affinity (in words): compared with the parent
T4 construct: human FcεRI(aa 1-176) was expressed using a baculovirus secretion expression system; host or cells: Hi-5 insect cells infected with baculovirus (virus produced in Sf9; transfer vector pAcGP67)
T4 sequence (P12319 26-201): T1 sequence (P12319 26-201)
Text: The extracellular domain of the alpha subunit of the human FcεRI(aa 1-176) was expressed using a baculovirus secretion expression system (Pharminten). cDNA encoding this domain was obtained through PCR of a plasmid containing a full length clone. The DNA fragment was ligated into baculovirus tranfer vector pAcGP67 and along with BaculoGold linearized baculovirus DNA was transfected into Sf9 cells Spodoptera frugiperda insect cells for baculovirus production (Pharmingen). Soluble FcεRI was affinity purified from the growth media of baculovirus infected Hi-5 insect cells (Expression Systems).
Phage ELISA assays were carried out as described (Lowman, 1998, supra), using Nunc Maxisorp™ plates coated with a 2 μg/mL solution of baculovirus-derived FcεRI. Peptide-phage were pre-incubated for 5-10 min with serial dilutions of receptor, then added to the receptor-coated plate. After incubation for 1 h at room temperature, the plates were washed and an anti-phage HRP-conjugated antibody (Pharmacia) was added. After further incubation for 20 min, plates were again washed and developed using the substrate OPD (Sigma). Optical density at 492 nm was read and plotted as a function of FcεRI concentration to determine an IC50 of inhibition by each peptide-phage variant.
A phage-based alanine scanning approach was used to map the FcεRI binding determinants of IGE134 (SEQ ID NOS:155, 171), as described above for IGE120 (SEQ ID NO:131, 159). […] Additionally, combinations of Ala mutations, deletions, and other substitutions were tested.

[6] = g3 phage clones, immobilized FcεRI-IgG, titrated soluble FcεRI-IgG, read-out: Phage IC50
[7] = truncated peptides on g3 phage, read-out: IC50

CC(C)C[C@H](NC(=O)[C@H](C)N)C(=O)N[C@H]1CSSC[C@H](NC(=O)[C@H](CC(C)C)NC(=O)[C@H](C)N)C(=O)N2CCC[C@H]2C(=O)N[C@@H](C)C(=O)N[C@@H](C(C)C)C(=O)N[C@H](C(=O)N[C@@H](Cc2ccc(O)cc2)C(=O)N[C@H](C(N)=O)C(C)C)CSSC[C@@H](C(=O)N[C@@H](Cc2ccc(O)cc2)C(=O)N[C@H](C(N)=O)C(C)C)NC(=O)[C@H](C(C)C)NC(=O)[C@H](C)NC(=O)[C@@H]2CCCN2C1=O [IGE088, ALCPAVCYV-nh2] (I: H-ALCPAVCYV-NH2 / II: H-ALCPAVCYV-NH2; disulfide I:3-II:3, I:7-II:7; N-terminus assumed)
EC50 [1]: > 450 µM
IC50 [2]: > 450 µM
Structure Score [3]: +/−

CC(C)C[C@H](NC(=O)[C@H](C)N)C(=O)N[C@H]1CSSC[C@@H](C(=O)N[C@@H](Cc2ccc(O)cc2)C(=O)N[C@H](C(N)=O)C(C)C)NC(=O)[C@H](C(C)C)NC(=O)[C@H](C)NC(=O)[C@@H]2CCCN2C(=O)[C@@H](NC(=O)[C@H](CC(C)C)NC(=O)[C@H](C)N)CSSC[C@@H](C(=O)N[C@@H](Cc2ccc(O)cc2)C(=O)N[C@H](C(N)=O)C(C)C)NC(=O)[C@H](C(C)C)NC(=O)[C@H](C)NC(=O)[C@@H]2CCCN2C1=O [IGE089] (I: H-ALCPAVCYV-NH2 / II: H-ALCPAVCYV-NH2; disulfide I:3-II:7, I:7-II:3)
EC50 [1]: 64 µM
inhibiting 125I-IgE binding to cell surface expressed FcεRI (in words) [2]: Significant inhibitory activity
IC50 [2]: 64 µM
Structure Score [3]: +++

CC(C)[C@H](N)C(=O)N[C@@H](CCC(N)=O)C(=O)N[C@H]1CSSC[C@@H](C(=O)N[C@@H](Cc2ccc(O)cc2)C(=O)N[C@H](C(N)=O)C(C)C)NC(=O)[C@H](Cc2ccccc2)NC(=O)[C@H](Cc2c[nH]cn2)NC(=O)[C@@H]2CCCN2C1=O [IGE129, VQCPHFCYV-nh2] (H-VQCPHFCYV-NH2; disulfide 3-7)
EC50 [1]: > 90 µM

CTEGPWGWVCMAAD [g3c.21]
Relative (IC50) (fold weaker) ([4]; truncated peptides on g3 phage): NDB

DLPACTEGPWGWVCMAAD [g3b.7]
IC50 [4, 6]: 9 nM

GRAQCTEGPWGWVCMAAD [g3b.6]
IC50 [4, 6]: 16 nM

GRTECTEGPWGWVCMAAD [g3b.8]
IC50 [4, 6]: 14 nM

IVCPRLCYVGGKALCPDVCAV [SEQ ID NO:143]
fold reduction in binding affinity compared to IGE120 ([5]; IGE120-phage alanine scan): No detectable binding

IVCPRLCYVGGKALCPDVCYV [SEQ ID NO:131]
relative binding affinity (in words) [5]: improved binding affinity

IVCPRLCYELDYELCPDVCYV
fold improved affinity over IGE120 ([5]; clone from IGE120-phage library): about 2 fold

LPRCTEGPWGWVCMAAD [g3c.1]
Relative (IC50) (fold weaker) ([4]; truncated peptides on g3 phage): 1X
IC50 [4, 7]: 3 nM

NLPRCTEGPWGWVCM [g3c.34]
Relative (IC50) (fold weaker) ([4]; truncated peptides on g3 phage): 3X
IC50 [4, 7]: 14.6 nM

NLPRCTEGPWGWVCMA [g3c.31]
Relative (IC50) (fold weaker) ([4]; truncated peptides on g3 phage): 1X
IC50 [4, 7]: 6.1 nM

NLPRCTEGPWGWVCMAA [g3c.29]
Relative (IC50) (fold weaker) ([4]; truncated peptides on g3 phage): 1X
IC50 [4, 7]: 5 nM

NLPRCTEGPWGWVCMAAD [g3b.1]
IC50 [4, 6]: 13 nM

NLPRCTEGPWGWVCMAAD [g3c.42]
Relative (IC50) (fold weaker) ([4]; truncated peptides on g3 phage): 1X
IC50 [4, 7]: 3.1 nM and 5.6 nM

NLPTCTEGPWGWVCMAAD [g3b.3]
IC50 [4, 6]: 7 nM

RCTEGPWGWVCMAAD [g3c.17]
Relative (IC50) (fold weaker) ([4]; truncated peptides on g3 phage): NDB

VMPTCTEGPWGWVCMAAD [g3b.4]
IC50 [4, 6]: 7 nM

VQCPHFCYVGGKALCPDVCYV
relative binding affinity (in words) [5]: improved binding affinity
